Reference: ChEMBL document CHEMBL1125972, “Synthesis of chemoreversible prodrugs of ARA-C” (Bioorg Med Chem Lett, 1991)

Assay: Half life value was determined
Type: ADME

SMILES	half-life [h]
CC(C)(NC(=O)CO)C(=O)Nc1ccn(C2O[C@H](CO)[C@@H](O)[C@@H]2O)c(=O)n1 (stereo partly specified)	360
CC(=O)[O-].CC(C)(NC(=O)CO)C(=O)Nc1ccn(C2O[C@H](CO)[C@@H](O)[C@@H]2O)c(=O)n1.[Na+] (stereo partly specified)	1.4
CC(=O)O.CC(C)(NC(=O)CO)C(=O)Nc1ccn(C2O[C@H](CO)[C@@H](O)[C@@H]2O)c(=O)n1 (stereo partly specified)	860

Results, then the compound that gave them:

half-life [h]	SMILES
42	CC(C)(NC(=O)[C@@H](N)Cc1ccc(OCc2ccccc2)cc1)C(=O)Nc1ccn(C2O[C@H](CO)[C@@H](O)[C@@H]2O)c(=O)n1 (stereo partly specified)
31	CC(=O)O.CC(C)(NC(=O)[C@@H](N)Cc1ccc(OCc2ccccc2)cc1)C(=O)Nc1ccn(C2O[C@H](CO)[C@@H](O)[C@@H]2O)c(=O)n1 (stereo partly specified)
0.3	CC(=O)[O-].CC(C)(NC(=O)[C@@H](N)Cc1ccc(OCc2ccccc2)cc1)C(=O)Nc1ccn(C2O[C@H](CO)[C@@H](O)[C@@H]2O)c(=O)n1.[Na+] (stereo partly specified)
